Source: patent publication US8609591B2, “Herbicidal composition” (Ishihara Sangyo Kaisha, Ltd., priority 2010, dated 2013)
Read-outs that look alike come from different tables or passages of the source.

Assays:
[1] = tested on: barnyardgrass (Echinochloa crus-galli L.); assay: Foliar treatment pot test, growth inhibition rate visually observed; assay type: in vivo; details: for inhibition at 18.75 g/ha / inhibition at 37.5 g/ha: 8 DAT
Procedure: (§1) Upland field soil was put into a 1/1,000,000 hectare pot, and seeds of various plants (barnyardgrass (Echinochloa crus-galli L.) and velvetleaf (Abutilon theophrasti MEDIC.) were sown. When the respective plants reached predetermined leaf stage, herbicidal compositions in predetermined amounts were diluted with water in an amount corresponding to 300 L/ha and applied for foliar treatment by a small sprayer.
(§2) On the 8 to 14 days after treatment (DAT), the state of growth of the respective plants was visually observed to determine the growth inhibition rate (measured value) in accordance with the following evaluation standard. Further, in accordance with the Colby's formula, the growth inhibition rate (calculated value) was calculated. In Tables, with respect to the benzoylpyrazole compound represented by the formula (I), Compound Nos. in Table 1 are described, and with respect to other compounds, common names are described. […]

[2] = tested on: velvetleaf (Abutilon theophrasti MEDIC.); assay: as above; assay type: in vivo; details: for inhibition at 18.75 g/ha / inhibition at 37.5 g/ha: 8 DAT
Procedure: as §1, §2

[3] = 192 h, 2.8 to 3.4 leaf stage, foliar treatment, Table 2-5, read-out: Growth inhibition rate (%) of barnyardgrass, Measured value
[4] = 192 h, 2.8 to 3.4 leaf stage, foliar treatment, read-out: Growth inhibition rate (%) of barnyardgrass, Measured value
[5] = 192 h, 3.6 to 4.5 leaf stage, foliar treatment, Table 2-3, read-out: Growth inhibition rate (%) of barnyardgrass, Measured value
[6] = 192 h, 3.6 to 4.5 leaf stage, foliar treatment, Table 2-10, read-out: Growth inhibition rate (%) of barnyardgrass, Measured value
[7] = 192 h, 3.6 to 4.5 leaf stage, foliar treatment, Table 2-12, read-out: Growth inhibition rate (%) of barnyardgrass, Measured value
[8] = 192 h, 1.8 to 2.4 leaf stage, foliar treatment, Table 2-2, read-out: Growth inhibition rate (%) of velvetleaf, Measured value
[9] = 192 h, 1.8 to 2.4 leaf stage, foliar treatment, Table 2-6, read-out: Growth inhibition rate (%) of velvetleaf, Measured value
[10] = 192 h, 2.6 to 3.2 leaf stage, foliar treatment, Table 2-4, read-out: Growth inhibition rate (%) of velvetleaf, Measured value
[11] = 192 h, 2.6 to 3.2 leaf stage, foliar treatment, Table 2-11, read-out: Growth inhibition rate (%) of velvetleaf, Measured value
[12] = 192 h, 2.6 to 3.2 leaf stage, foliar treatment, Table 2-13, read-out: Growth inhibition rate (%) of velvetleaf, Measured value
[13] = 192 h, read-out: Growth inhibition rate (%) of barnyardgrass, Measured value
[14] = 192 h, read-out: Growth inhibition rate (%) of velvetleaf, Measured value

CC(C)c1nn(C(=O)NC(C)(C)C)c(=O)n1N [Amicarbazone]
inhibition at 18.75 g/ha [1, 3]: 30%
inhibition at 18.75 g/ha [1, 4]: 30%
inhibition at 18.75 g/ha [1, 5]: 20%
inhibition at 18.75 g/ha [1, 6]: 20%
inhibition at 18.75 g/ha [1, 7]: 20%
inhibition at 37.5 g/ha [1, 3]: 50%
inhibition at 37.5 g/ha [1, 4]: 50%
inhibition at 37.5 g/ha [1, 5]: 25%
inhibition at 37.5 g/ha [1, 6]: 25%
inhibition at 37.5 g/ha [1, 7]: 25%
inhibition at 75 g/ha ([1]; 264 h, 75 g/ha, 3.2 to 4.1 leaf stage, 11 DAT, foliar treatment, read-out: Growth inhibition rate (%) of barnyardgrass, Measured value): 40%
inhibition at 150 g/ha ([1]; 264 h, 150 g/ha, 3.2 to 4.1 leaf stage, 11 DAT, foliar treatment, read-out: Growth inhibition rate (%) of barnyardgrass, Measured value): 73%
inhibition at 30 g/ha ([1]; 336 h, 30 g/ha, 4.2 to 5.3 leaf stage, 14 DAT, foliar treatment, read-out: Growth inhibition rate (%) of barnyardgrass, Measured value): 0%
inhibition at 50 g/ha ([1]; 336 h, 50 g/ha, 4.2 to 5.3 leaf stage, 14 DAT, foliar treatment, read-out: Growth inhibition rate (%) of barnyardgrass, Measured value): 0%
inhibition at 75 g/ha ([1]; 336 h, 75 g/ha, 4.2 to 5.3 leaf stage, 14 DAT, foliar treatment, read-out: Growth inhibition rate (%) of barnyardgrass, Measured value): 15%
inhibition at 18.75 g/ha [2, 8]: 40%
inhibition at 18.75 g/ha [2, 9]: 40%
inhibition at 18.75 g/ha [2, 10]: 50%
inhibition at 18.75 g/ha [2, 11]: 50%
inhibition at 18.75 g/ha [2, 12]: 50%
inhibition at 37.5 g/ha [2, 8]: 45%
inhibition at 37.5 g/ha [2, 9]: 45%
inhibition at 37.5 g/ha [2, 10]: 60%
inhibition at 37.5 g/ha [2, 11]: 60%
inhibition at 37.5 g/ha [2, 12]: 60%
inhibition at 30 g/ha ([2]; 336 h, 30 g/ha, 4 to 4.5 leaf stage, 14 DAT, foliar treatment, read-out: Growth inhibition rate (%) of velvetleaf, Measured value): 35%
inhibition at 50 g/ha ([2]; 336 h, 50 g/ha, 4 to 4.5 leaf stage, 14 DAT, foliar treatment, read-out: Growth inhibition rate (%) of velvetleaf, Measured value): 55%
inhibition at 75 g/ha ([2]; 336 h, 75 g/ha, 4 to 4.5 leaf stage, 14 DAT, foliar treatment, read-out: Growth inhibition rate (%) of velvetleaf, Measured value): 55%

CS(=O)(=O)c1ccc(C(=O)C2C(=O)CCCC2=O)c(Cl)c1 [Sulcotrione]
inhibition at 75 g/ha [1, 13]: 40%
inhibition at 150 g/ha [1, 13]: 45%
inhibition at 75 g/ha [2, 14]: 30%
inhibition at 150 g/ha [2, 14]: 30%

Cc1c(C(=O)c2cnn(C)c2O)ccc(S(C)(=O)=O)c1C1=NOCC1 [Topramezone]
inhibition at 7 g/ha [1, 13]: 40%
inhibition at 15 g/ha [1, 13]: 40%
inhibition at 7 g/ha [2, 14]: 30%
inhibition at 15 g/ha [2, 14]: 30%
